From patent US20140295012A1, “LATENT HUMAN IMMUNODEFICIENCY VIRUS REACTIVATION” (priority 2011, published 2014)
*1 amine or outer side, *2 acyl side, *3 side chain or, on linkers, in order; H or OH if unused. Where a SMILES comes first, the peptide text is derived from it. Bridges are numbered along the chain shown (N, C = ends). Roman numbers before positions name the chains, in order. [ ]: non-standard residue; d: D form. Actinocin(9to1) = Cc1c2oc3c(C)ccc(C(=O)[*:1])c3nc-2c(C(=O)[*:2])c(N)c1=O; NMeV = CN[C@H](C(=O)O)C(C)C; Sar = CNCC(=O)O

B1: HRF: flagellin polypeptide from Massilia timonae (SEQ ID NO:10), used as bacterial culture supernatant (protein)
chain: MASVINTNVPSLNSQRNLSTSQAQLNTSIQRLSSGMRINSAKDDAAGLAISDRMNSQIKGMTQATRNANDGVSMAQTAEGALSSSGDILQRIRELAVQSSNSSNSASDRKALQTEVTQLSSELNRIANTTEFNGQKLMDGTLGTANFQVGANAGQLISMTGANFNTSVYGNNQIAGDAAKAAATTSAAATGAFTISGYLGTSAAINTTDADTAKTIAASINNVTGDTGVTATARTDSFLKSAGGAHTMSLASDNSGTGEAVDISFTVGDGGDTADDYAAAISAFNAQTAKTGVTAEYDAVEKGLKLTNSAGENISLTNKAGSADIDMDTYAADGALMASALTLEAGDVGVANGRVTMDSEKSFSVAEGTDTGFELADSSALKSVAKIDISDFEGAQEAIKVADAALSAVNSQRAEYGALQSRFESAISNLSSSTENLSASRSRIVDTDFAAETAKMTRGQILQQAGTSMLAQANSLPNGVLSLLRG

Tests used:
Format in all cases: cell-based
[1] = system: latently HIV-1 infected EF7 cells; experiment: Priming of latent HIV-1 infection in EF7 T cells (converse sense integration); details: 4 ng/ml, 18 hours pretreatment
Method: FIGS. 13A-B show the effect of dactinomycin on latent infection as a function of the orientation of integration relative to the direction of host-gene transcription. HIV-1 can integrate in the same transcriptional orientation as the host-gene or in the converse sense. Two latently HIV-1 infected T cell lines, which were determined to have HIV-1 integrated in the same sense orientation (CA5 cells) (FIG. 13A) and in the converse sense orientation (EF7 cells) (FIG. 13B) were used. For either cell line, the host-gene name, the position of integration and the chromosome number is given. For either T cell line, reactivation levels achieved by TNF-α treatment alone or by TNF-α stimulation following pretreatment with 4 ng/ml dactinomycin for 18 hours are shown. Reactivation levels were determined using flow cytometric analysis for GFP expression. The gray dotted line represents maximum achievable reactivation levels using PMA.
The sense of orientation of the integrated latent virus, relative to the transcriptional direction of the host-gene, was investigated to determine whether the orientation would influence the ability of dactinomycin to prime latent infection for reactivation. […]

[2] = system: chronically actively infected T cell lines (JNLG#35 and JNLG#44); experiment: Active HIV-1 transcription in chronically actively infected T cell lines JNLG#35 and JNLG#44 (GFP MCF); details: 48 hours
Method: Changes in HIV-1 transcription levels were determined after 48 hours by measuring GFP mean channel fluorescence intensity (GFP MCF). GFP MCF was plotted over the drug concentration for dactinomycin (FIG. 12A), the DNA intercalators daunorubicin (DM) (FIG. 12B) and rebeccamycin (RM) (FIG. 12C), as well as the transcription inhibitors ICRF-193 (FIG. 12D), DRB (FIG. 12E) and α-amanitin (FIG. 12F). The size of symbols indicates the respective cell viability in the sample (size range adjusted to 5-95%).
For this purpose, each of the compounds was titrated over a relevant range of concentrations on two chronically actively infected T cell lines (JNLG#35 and JNLG#44). These clonal cell lines are infected with a GFP-reporter virus. Forty eight hours after addition of the compounds, the effect of each compound on HIV-1 transcription was determined by flow cytometric analysis quantifying GFP mean channel fluorescence intensity (MCF).

P-TEFb/HEXIM-1 complex = experiment: Glycerol gradient sedimentation analysis of P-TEFb/HEXIM-1 complex in J89GFP cells (Western blot)
Method: J89GFP cells were left untreated, treated with a high concentration of dactinomycin for 1 hour or with the physiological optimal concentration (0.004 μg/ml or 0.01 μg/ml) for 18 hours. Cell lysates were separated on a glycerol gradient (10-45%). Each gradient fraction was separated on a 10% SDS-PAGE gel and transferred by Western blot. […] Band densities were determined using ImageJ and are presented as relative band density. […] Band densities were determined using ImageJ and are presented as relative band density.
Ten million J89GFP or CA5 T cells were left untreated or treated with 0.004 μg/mL, 0.01 μg/ml or 1 μg/mL dactinomycin for 18 hours or 1 hour, respectively. Cells were washed twice with cold PBS, then lysed for 30 minutes on ice in lysis buffer (0.5% TritonX100, 20 mM HEPES (pH7.9), 150 mM NaCl, 20 mM KCl, 2 mM MgCl2, 1 mM DTT, 0.2 mM EDTA, and protease inhibitor cocktail (P8340; SIGMA)), followed by centrifugation at 14,000 rpm for 10 minutes. The same amount of protein lysate was fractionated on 5 ml of a 10-45% glycerol gradient in lysis buffer in a SW-Ti55 rotor (Beckman Coulter; Miami, Fla.) for 16 hours at 45,000 rpm. Fractions were resolved on 10% SDS-PAGE and transferred to polyvinylidene fluoride membrane. The antibodies used for Western blotting were rabbit anti-Cdk9 (sc-484; Santa Cruz Biotechnology; Santa Cruz, Calif.) and rabbit anti-HEXIM1 (ab25388; Abcam; Cambridge, Mass.), respectively.
To test the idea that dactinomycin primed latent HIV-1 infection for reactivation by releasing P-TEFb (a complex of CDK9 and Cyclin T1) from its complex with HEXIM-1, the latently HIV-1 infected J89GFP or CA5 T cells were treated with 1.0 μg/ml dactinomycin for 1 hour or with the physiological optimal concentration of 0.004 μg/ml for 18 hours. Cell lysates were then separated on a glycerol gradient (10-45%) to reveal possible changes in the composition of the P-TEFb/HEXIM-1 complex. […] Each gradient fraction was separated on a SDS-PAGE gel and subjected to Western blotting. […] Similar results were obtained using anti-HEXIM-1 antibody. […] The minimal dactinomycin concentration to induce a shift towards the small complex was 0.01 μg/ml of dactinomycin. […] Similar results were obtained using the latently infected CA5 T cells.

[3] = system: latently HIV-1 infected monocytic THP89GFP cells; experiment: HIV-1 reactivation in latently infected monocytic THP89GFP cells
NF-κB p50 and p65 = NF-κB p50 and p65 activity in PBMCs (TransAM NF-κB family ELISA); details: compared to PHA-L
Method: FIGS. 8A-8C show HRF induced NF-κB and cytokine expression in peripheral blood mononuclear cells (PBMCs). […] PBMCs were activated with optimal concentrations of either PHA-L or with HRF. Cells were harvested at the indicated time points. Nuclear extracts were generated and NF-κB p50 activity and NF-κB p65 activity were determined using the TransAM™ NF-κB family ELISA kit (Active Motif). […] PBMCs from four different healthy donors were stimulated with an anti-CD3/CD28 antibody combination and infected with a GFP reporter virus on day 4 post-stimulation. HIV-1 replication was monitored in the absence (C) or presence of HRF for 5 days and the achieved HIV-1 infection levels were determined by flow cytometric analysis for the percentage of EGFP-positive cells. All infections were normalized to the infection level in the untreated culture and the histogram represents the mean infection levels obtained in 4 donor cultures±standard deviation. […] Culture supernatants were collected after 24 hours and the concentrations of a panel of cytokines was determined by BioPlex analysis. […]
NF-κB activity in nuclear extracts was quantified using the TransAM™ NF-κB family ELISA kit from Active Motif, Inc. (Carlsbad, Calif.) according to the manufacturer's instructions.

| Molecule | priming effect for reactivation by TNF-α [1] | effect on active HIV-1 infection / transcription (GFP MCF) [2] | shift of CDK9 from large to small complex (P-TEFb/HEXIM-1 complex; 0.004 μg/ml for 18 hours) | shift of HEXIM-1 towards the small complex (P-TEFb/HEXIM-1 complex; 0.004 μg/ml for 18 hours) | release of P-TEFb from its complex with HEXIM-1 (anti-CDK9) (P-TEFb/HEXIM-1 complex; 1 μg/ml for 1 hour, J89GFP) | minimal concentration to induce a shift of HEXIM-1 towards the small complex (P-TEFb/HEXIM-1 complex; 18 hours) | HIV-1 reactivation [3] | NF-κB p50 and p65 activity peak (NF-κB p50 and p65) |
| --- | --- | --- | --- | --- | --- | --- | --- | --- |
| Cc1c2oc3c(C)ccc(C(=O)N[C@@H]4C(=O)N[C@H](C(C)C)C(=O)N5CCC[C@H]5C(=O)N(C)CC(=O)N(C)[C@@H](C(C)C)C(=O)O[C@@H]4C)c3nc-2c(C(=O)N[C@@H]2C(=O)N[C@H](C(C)C)C(=O)N3CCC[C@H]3C(=O)N(C)CC(=O)N(C)[C@@H](C(C)C)C(=O)O[C@@H]2C)c(N)c1=O [dactinomycin] (I: T[dV]P[Sar][NMeV] / II: T[dV]P[Sar][NMeV]; ester I:1-I:C, II:1-II:C; linker I:N-II:N via Actinocin(9to1)) | exerted its priming effect in each integration scenario | did not boost active infection, but rather inhibited active infection | shift of CDK9 presence from the large complex to the small complex was also detected | no shift towards the small complex was observed | quantitatively released P-TEFb | 0.01 µg/mL |  |  |
| B1 |  |  |  |  |  |  | reactivated latent HIV-1 infection | very high, but short-lived |
